# Test results published in PubChem BioAssay AID1259407 (Chemical Carcinogenesis Research Information System (CCRIS), 2018).
# The source made the active and inactive calls. No rule for the calls is given here.
# System: CCRIS mutagenicity, Ames/micronucleus/aberration tests
# Experiment: CCRIS mutagenicity studies
compound,measurement,setting,value
Cn1c(N)nc2c3cccnc3ccc21,mutagenic call,"Test System: AMES SALMONELLA TYPHIMURIUM, Strain/Indicator: TA98, Metabolic Activation: RAT LIVER, MICROSOMES, AROCLOR 1254, Method: STANDARD PLATE",active; positive
same,mutagenic call,"Test System: AMES SALMONELLA TYPHIMURIUM, Strain/Indicator: TA98, Metabolic Activation: RAT, LIVER, HEPATOCYTES, AROCLOR 1254, Method: PREINCUBATION",active; positive
same,mutagenic call,"Test System: AMES SALMONELLA TYPHIMURIUM, Strain/Indicator: TA98, Metabolic Activation: RAT, LIVER, HEPATOCYTES, Method: PREINCUBATION",active; positive
same,mutagenic call,"Test System: AMES SALMONELLA TYPHIMURIUM, Strain/Indicator: TA98, Metabolic Activation: RAT, LIVER, MICROSOMES, Method: PREINCUBATION",active; positive
same,mutagenic call,"Test System: AMES SALMONELLA TYPHIMURIUM, Strain/Indicator: TA98, Metabolic Activation: RAT, LIVER, S-9, 3-METHYLCHOLANTHRENE, Method: PREINCUBATION",active; positive
same,mutagenic call,"Test System: AMES SALMONELLA TYPHIMURIUM, Strain/Indicator: TA98, Metabolic Activation: RAT, LIVER, S-9, AROCLOR, Method: PREINCUBATION",active; positive
same,mutagenic call,"Test System: AMES SALMONELLA TYPHIMURIUM, Strain/Indicator: TA98, Metabolic Activation: RAT, LIVER, S-9, N-BENZYLIMIDAZOLE, Method: PREINCUBATION",active; positive
same,mutagenic call,"Test System: AMES SALMONELLA TYPHIMURIUM, Strain/Indicator: TA98, Metabolic Activation: RAT, LIVER, S-9, PHENOBARBITONE, Method: PREINCUBATION",active; positive
same,mutagenic call,"Test System: AMES SALMONELLA TYPHIMURIUM, Strain/Indicator: TA98, Metabolic Activation: RAT, LIVER, S-9, Method: STANDARD PLATE",active; positive
same,mutagenic call,"Test System: AMES SALMONELLA TYPHIMURIUM, Strain/Indicator: TA98, Method: STANDARD PLATE",active; positive
same,mutagenic call,"Test System: AMES SALMONELLA TYPHIMURIUM, Strain/Indicator: TA100, Metabolic Activation: NONE, Method: PREINCUBATION",inactive; negative
same,mutagenic call,"Test System: AMES SALMONELLA TYPHIMURIUM, Strain/Indicator: TA100, Metabolic Activation: RAT, LIVER, S-9, AROCLOR 1254, Method: PREINCUBATION",active; positive
same,mutagenic call,"Test System: AMES SALMONELLA TYPHIMURIUM, Strain/Indicator: YG1019, Metabolic Activation: RAT LIVER S-9, AROCLOR, Method: PREINCUBATION",active; positive
same,mutagenic call,"Test System: AMES SALMONELLA TYPHIMURIUM, Strain/Indicator: YG1024, Metabolic Activation: RAT, LIVER, S-9, AROCLOR, Method: PREINCUBATION",active; positive
same,mutagenic call,"Test System: CHINESE HAMSTER V-79, Strain/Indicator: V-79/6-THIOGUANINE, Metabolic Activation: RAT, LIVER, HEPATOCYTES, AROCLOR 1254",active; positive
same,mutagenic call,"Test System: CHINESE HAMSTER V-79, Strain/Indicator: V-79/6-THIOGUANINE, Metabolic Activation: RAT, LIVER, S-9, AROCLOR 1254",inactive; negative
same,mutagenic call,"Test System: E. COLI, Strain/Indicator: CC109, Metabolic Activation: RAT, LIVER, S-9, AROCLOR 1254, Method: STANDARD PLATE",active; positive
same,mutagenic call,"Test System: E. COLI, Strain/Indicator: CC110, Metabolic Activation: RAT, LIVER, S-9, AROCLOR 1254, Method: STANDARD PLATE",active; positive
same,mutagenic call,"Test System: E. COLI, Strain/Indicator: DJ3109, Metabolic Activation: RAT, LIVER, S-9, AROCLOR 1254, Method: STANDARD PLATE",active; positive
same,mutagenic call,"Test System: E. COLI, Strain/Indicator: DJ3110, Metabolic Activation: RAT, LIVER, S-9, AROCLOR 1254, Method: STANDARD PLATE",active; positive
same,mutagenic call,"Test System: E. COLI, Strain/Indicator: DJ3209, Metabolic Activation: RAT, LIVER, S-9, AROCLOR 1254, Method: STANDARD PLATE",active; positive
same,mutagenic call,"Test System: E. COLI, Strain/Indicator: DJ3210, Metabolic Activation: RAT, LIVER, S-9, AROCLOR 1254, Method: STANDARD PLATE",active; positive
same,mutagenic call,"Test System: UDS HAMSTER HEPATOCYTES, Strain/Indicator: THY INCORP, Metabolic Activation: NONE, Method: LIQUID SCINTILLATION COUNTING",active; positive
same,mutagenic call,"Test System: UDS HUMAN HEPATOCYTES, Strain/Indicator: THY INCORP, Metabolic Activation: NONE, Method: AUTORADIOGRAPHY",active; positive
same,mutagenic call,"Test System: UDS MOUSE HEPATOCYTES, Strain/Indicator: THY INCORP, Metabolic Activation: NONE, Method: AUTORADIOGRAPHY",active; positive
same,mutagenic call,"Test System: UDS RAT HEPATOCYTES, Strain/Indicator: THY INCORP, Metabolic Activation: NONE, Method: AUTORADIOGRAPHY",inactive; negative
same,mutagenic call,"Test System: UDS RAT HEPATOCYTES, Strain/Indicator: THY INCORP, Metabolic Activation: NONE, Method: LIQUID SCINTILLATION COUNTING",inactive; negative
